Test results as given in article PMC6437697 (Journal of Medicinal Chemistry, 2019).

Key:
Test in all cases: KINOMEscan
Type in all cases: binding
Details in all cases: read-out: % control activity remaining
[1] = molecular target: T1, IGF1R (Homo sapiens, UniProt P08069)
T1 construct: purchased Eurofins DiscoverX KINOMEscan

[2] = molecular target: T2, BIKE (Homo sapiens, UniProt Q9NSY1)
T2 construct: purchased Eurofins DiscoverX KINOMEscan

[3] = molecular target: T3, PAK4 (Homo sapiens, UniProt O96013)
T3 construct: purchased Eurofins DiscoverX KINOMEscan

[4] = molecular target: T4, LATS1 (Homo sapiens, UniProt O95835)
T4 construct: purchased Eurofins DiscoverX KINOMEscan
T4 sequence (O95835 1-1130): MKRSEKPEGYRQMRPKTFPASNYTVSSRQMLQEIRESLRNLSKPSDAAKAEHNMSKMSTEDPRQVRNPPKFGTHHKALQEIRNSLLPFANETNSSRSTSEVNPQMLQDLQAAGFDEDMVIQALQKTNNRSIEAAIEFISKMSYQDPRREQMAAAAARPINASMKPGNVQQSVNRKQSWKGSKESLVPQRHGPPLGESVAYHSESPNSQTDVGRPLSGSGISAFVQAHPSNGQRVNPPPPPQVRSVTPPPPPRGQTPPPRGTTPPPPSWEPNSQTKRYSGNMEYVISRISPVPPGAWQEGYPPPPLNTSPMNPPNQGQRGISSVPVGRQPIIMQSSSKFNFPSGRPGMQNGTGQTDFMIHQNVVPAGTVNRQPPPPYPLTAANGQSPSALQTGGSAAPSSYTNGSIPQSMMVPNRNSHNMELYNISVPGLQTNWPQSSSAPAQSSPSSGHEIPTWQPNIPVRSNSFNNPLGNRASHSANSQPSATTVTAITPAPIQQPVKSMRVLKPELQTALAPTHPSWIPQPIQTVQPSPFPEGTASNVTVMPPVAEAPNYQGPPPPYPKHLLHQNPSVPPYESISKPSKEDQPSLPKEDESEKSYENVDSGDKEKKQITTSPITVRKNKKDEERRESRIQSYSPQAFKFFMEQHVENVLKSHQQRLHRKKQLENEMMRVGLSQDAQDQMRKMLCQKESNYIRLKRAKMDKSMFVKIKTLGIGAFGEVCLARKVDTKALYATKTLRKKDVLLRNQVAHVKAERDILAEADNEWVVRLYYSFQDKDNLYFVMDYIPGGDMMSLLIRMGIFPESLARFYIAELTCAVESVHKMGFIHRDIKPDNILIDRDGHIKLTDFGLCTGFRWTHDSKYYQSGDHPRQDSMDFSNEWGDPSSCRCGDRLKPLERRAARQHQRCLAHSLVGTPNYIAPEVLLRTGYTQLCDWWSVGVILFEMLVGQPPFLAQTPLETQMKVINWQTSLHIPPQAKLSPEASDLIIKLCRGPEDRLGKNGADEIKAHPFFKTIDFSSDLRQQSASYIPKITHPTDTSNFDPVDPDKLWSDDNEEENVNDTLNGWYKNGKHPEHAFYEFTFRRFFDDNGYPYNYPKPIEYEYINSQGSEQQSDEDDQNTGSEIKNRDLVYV

[5] = molecular target: T5, MAP3K2 (Homo sapiens, UniProt Q9Y2U5)
T5 construct: purchased Eurofins DiscoverX KINOMEscan
T5 sequence (Q9Y2U5 1-619): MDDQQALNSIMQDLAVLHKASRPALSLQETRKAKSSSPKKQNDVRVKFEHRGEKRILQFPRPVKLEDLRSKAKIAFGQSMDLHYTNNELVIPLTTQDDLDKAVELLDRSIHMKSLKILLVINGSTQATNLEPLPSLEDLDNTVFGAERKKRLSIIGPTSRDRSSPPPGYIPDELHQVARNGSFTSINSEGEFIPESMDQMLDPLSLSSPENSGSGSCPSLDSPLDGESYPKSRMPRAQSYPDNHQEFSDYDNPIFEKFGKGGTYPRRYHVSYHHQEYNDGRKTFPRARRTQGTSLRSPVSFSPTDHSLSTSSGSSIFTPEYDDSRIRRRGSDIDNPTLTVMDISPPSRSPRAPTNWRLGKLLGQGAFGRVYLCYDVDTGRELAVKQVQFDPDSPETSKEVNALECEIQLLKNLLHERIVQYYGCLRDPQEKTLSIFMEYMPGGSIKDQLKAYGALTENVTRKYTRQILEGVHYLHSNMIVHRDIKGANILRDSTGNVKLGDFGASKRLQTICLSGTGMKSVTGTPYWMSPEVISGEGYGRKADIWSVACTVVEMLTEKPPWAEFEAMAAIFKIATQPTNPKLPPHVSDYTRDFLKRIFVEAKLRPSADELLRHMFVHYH

[6] = molecular target: T6, BLK (Homo sapiens, UniProt P51451)
T6 construct: purchased Eurofins DiscoverX KINOMEscan

[7] = molecular target: T7, ERK1 (Homo sapiens, UniProt P27361)
T7 construct: purchased Eurofins DiscoverX KINOMEscan

[8] = molecular target: T8, AMPK-alpha1 (Homo sapiens, UniProt Q13131)
T8 construct: purchased Eurofins DiscoverX KINOMEscan

[9] = molecular target: T9, PIP5K2B (Homo sapiens, UniProt P78356)
T9 construct: purchased Eurofins DiscoverX KINOMEscan
T9 sequence (P78356 1-416): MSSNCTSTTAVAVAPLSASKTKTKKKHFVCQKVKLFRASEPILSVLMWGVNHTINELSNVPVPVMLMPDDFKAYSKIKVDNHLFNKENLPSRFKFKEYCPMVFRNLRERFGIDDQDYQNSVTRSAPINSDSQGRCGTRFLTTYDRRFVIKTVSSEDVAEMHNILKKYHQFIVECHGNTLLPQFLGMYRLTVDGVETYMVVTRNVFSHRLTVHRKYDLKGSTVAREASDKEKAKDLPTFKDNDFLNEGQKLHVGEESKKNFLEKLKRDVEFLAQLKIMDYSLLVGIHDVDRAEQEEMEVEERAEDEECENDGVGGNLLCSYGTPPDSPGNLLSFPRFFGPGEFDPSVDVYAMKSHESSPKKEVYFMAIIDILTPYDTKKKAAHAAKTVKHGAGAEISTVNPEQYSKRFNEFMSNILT

T8 sequence (Q13131 whole entry): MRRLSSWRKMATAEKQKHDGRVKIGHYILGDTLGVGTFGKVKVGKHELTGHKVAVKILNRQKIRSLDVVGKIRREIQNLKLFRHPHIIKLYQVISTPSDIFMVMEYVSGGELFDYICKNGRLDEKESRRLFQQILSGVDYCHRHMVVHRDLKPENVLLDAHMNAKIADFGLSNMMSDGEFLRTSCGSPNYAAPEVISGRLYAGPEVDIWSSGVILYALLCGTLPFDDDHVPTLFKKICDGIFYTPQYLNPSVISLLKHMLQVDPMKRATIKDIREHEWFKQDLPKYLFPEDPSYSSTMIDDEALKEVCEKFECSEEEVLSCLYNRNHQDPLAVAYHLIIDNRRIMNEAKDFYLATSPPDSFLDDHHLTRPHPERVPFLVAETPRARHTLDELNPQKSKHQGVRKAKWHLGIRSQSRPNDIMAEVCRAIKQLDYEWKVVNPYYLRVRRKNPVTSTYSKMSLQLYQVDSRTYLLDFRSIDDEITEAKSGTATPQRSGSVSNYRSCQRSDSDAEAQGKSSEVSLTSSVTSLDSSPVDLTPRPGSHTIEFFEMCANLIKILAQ
T2 sequence (Q9NSY1 whole entry): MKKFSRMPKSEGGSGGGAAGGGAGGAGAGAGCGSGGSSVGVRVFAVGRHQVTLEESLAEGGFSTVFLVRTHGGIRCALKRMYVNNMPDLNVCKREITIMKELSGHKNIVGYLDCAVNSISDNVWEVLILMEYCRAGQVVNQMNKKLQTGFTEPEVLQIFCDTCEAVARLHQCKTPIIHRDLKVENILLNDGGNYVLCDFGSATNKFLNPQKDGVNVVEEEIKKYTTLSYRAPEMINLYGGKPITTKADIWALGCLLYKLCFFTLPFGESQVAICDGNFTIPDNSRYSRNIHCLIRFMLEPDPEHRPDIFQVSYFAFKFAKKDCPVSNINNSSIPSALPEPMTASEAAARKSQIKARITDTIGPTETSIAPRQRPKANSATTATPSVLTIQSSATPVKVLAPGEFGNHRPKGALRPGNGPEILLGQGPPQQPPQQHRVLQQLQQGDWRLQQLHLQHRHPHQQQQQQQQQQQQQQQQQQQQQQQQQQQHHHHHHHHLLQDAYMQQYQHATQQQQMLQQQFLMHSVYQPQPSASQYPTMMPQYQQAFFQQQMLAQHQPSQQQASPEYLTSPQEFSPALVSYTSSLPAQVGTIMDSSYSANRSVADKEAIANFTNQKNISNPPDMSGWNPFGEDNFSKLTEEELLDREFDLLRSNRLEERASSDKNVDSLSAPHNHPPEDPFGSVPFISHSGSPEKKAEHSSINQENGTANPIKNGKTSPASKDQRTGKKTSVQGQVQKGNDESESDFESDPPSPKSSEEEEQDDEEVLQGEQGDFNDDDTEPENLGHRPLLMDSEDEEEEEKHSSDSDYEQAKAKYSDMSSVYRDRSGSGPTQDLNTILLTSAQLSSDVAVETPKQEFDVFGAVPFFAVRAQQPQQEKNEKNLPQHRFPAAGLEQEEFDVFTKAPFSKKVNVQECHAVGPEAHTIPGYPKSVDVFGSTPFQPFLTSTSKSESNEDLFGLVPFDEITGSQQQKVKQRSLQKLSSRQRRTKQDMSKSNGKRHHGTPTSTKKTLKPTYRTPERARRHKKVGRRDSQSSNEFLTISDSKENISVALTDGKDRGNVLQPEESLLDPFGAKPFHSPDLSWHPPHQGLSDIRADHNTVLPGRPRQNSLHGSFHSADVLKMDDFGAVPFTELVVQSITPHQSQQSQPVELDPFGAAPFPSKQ
T7 sequence (P27361 whole entry): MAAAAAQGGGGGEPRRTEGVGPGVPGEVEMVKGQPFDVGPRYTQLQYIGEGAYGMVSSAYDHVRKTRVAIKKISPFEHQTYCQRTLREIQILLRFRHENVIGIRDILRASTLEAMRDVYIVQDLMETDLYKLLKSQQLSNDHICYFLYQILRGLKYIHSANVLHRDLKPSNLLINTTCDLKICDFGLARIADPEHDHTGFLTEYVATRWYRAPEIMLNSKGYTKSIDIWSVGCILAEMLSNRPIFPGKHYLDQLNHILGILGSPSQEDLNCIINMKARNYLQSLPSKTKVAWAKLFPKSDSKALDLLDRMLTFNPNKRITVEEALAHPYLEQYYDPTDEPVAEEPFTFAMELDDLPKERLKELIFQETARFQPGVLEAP
T3 sequence (O96013 whole entry): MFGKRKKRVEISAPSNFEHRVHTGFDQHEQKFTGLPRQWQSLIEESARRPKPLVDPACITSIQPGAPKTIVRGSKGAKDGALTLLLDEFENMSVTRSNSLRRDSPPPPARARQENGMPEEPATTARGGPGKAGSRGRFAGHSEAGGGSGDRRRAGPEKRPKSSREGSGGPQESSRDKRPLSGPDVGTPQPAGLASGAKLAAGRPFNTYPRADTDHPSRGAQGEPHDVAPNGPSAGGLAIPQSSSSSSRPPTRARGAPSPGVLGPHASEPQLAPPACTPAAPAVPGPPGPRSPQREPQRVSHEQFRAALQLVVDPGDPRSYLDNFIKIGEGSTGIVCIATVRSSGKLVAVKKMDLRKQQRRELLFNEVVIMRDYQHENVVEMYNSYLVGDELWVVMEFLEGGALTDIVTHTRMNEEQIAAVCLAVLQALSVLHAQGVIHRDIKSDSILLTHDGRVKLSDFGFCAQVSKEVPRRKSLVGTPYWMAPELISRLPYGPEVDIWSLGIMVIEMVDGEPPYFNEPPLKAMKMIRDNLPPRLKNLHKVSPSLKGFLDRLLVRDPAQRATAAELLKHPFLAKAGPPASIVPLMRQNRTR
T6 sequence (P51451 whole entry): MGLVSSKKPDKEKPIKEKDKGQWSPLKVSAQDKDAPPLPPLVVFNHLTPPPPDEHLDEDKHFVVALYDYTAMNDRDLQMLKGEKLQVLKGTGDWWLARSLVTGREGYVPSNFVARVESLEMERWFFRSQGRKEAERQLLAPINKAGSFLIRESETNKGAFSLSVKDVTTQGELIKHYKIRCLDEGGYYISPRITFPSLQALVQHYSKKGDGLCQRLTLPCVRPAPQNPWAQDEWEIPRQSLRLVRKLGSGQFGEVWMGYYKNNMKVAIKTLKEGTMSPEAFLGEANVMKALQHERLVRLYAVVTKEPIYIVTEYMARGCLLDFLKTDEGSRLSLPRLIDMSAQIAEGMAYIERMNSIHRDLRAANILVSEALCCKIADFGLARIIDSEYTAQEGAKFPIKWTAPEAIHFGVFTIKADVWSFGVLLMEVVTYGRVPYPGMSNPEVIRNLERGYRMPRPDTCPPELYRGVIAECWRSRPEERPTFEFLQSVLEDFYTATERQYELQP
T1 sequence (P08069 31-1367 limits assumed): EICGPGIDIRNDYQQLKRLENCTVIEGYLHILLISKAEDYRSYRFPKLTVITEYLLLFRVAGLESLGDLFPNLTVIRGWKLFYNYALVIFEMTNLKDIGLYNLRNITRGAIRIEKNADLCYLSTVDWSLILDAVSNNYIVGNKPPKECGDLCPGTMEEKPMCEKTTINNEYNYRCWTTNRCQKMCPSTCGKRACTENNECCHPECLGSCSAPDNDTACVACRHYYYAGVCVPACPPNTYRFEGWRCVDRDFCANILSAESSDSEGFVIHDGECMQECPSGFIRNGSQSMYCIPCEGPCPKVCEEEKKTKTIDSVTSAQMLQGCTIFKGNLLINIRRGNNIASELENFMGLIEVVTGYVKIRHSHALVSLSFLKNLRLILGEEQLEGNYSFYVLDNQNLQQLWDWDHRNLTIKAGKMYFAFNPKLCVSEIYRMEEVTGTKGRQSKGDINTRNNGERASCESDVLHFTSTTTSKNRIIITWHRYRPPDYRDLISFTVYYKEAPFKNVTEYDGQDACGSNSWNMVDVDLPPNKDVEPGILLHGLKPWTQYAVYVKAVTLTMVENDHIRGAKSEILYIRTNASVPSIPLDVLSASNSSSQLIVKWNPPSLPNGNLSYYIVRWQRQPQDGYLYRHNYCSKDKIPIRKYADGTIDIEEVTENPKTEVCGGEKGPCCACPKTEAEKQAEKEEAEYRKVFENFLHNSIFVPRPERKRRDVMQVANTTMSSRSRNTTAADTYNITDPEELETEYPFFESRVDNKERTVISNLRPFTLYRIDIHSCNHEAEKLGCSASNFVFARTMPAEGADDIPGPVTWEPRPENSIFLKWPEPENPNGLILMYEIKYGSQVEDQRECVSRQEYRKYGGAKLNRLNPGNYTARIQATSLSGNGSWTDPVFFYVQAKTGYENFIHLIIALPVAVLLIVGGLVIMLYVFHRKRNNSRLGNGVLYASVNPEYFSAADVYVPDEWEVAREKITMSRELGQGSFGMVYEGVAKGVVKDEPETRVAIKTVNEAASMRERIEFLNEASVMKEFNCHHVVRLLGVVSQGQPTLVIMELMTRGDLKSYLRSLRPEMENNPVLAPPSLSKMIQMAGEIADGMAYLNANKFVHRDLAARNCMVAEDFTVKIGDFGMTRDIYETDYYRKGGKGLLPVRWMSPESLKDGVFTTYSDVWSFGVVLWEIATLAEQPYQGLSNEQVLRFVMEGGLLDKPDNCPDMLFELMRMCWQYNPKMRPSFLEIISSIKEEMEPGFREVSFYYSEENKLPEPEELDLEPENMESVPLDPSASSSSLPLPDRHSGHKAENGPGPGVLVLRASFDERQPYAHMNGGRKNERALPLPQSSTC

Clc1cc(NCC2CC2)c2ncc(-c3ccc4[nH]ncc4c3)n2n1 [compound 2, 6-Chloro-N-(cyclopropylmethyl)-3-(1H-indazol-5-yl)imidazo[1,2-b]pyridazin-8-amine]
remaining binding at 1 µM [1]: 100%
remaining binding at 1 µM [2]: 34%
remaining binding at 1 µM [3]: 79%
remaining binding at 1 µM [4]: 82%
remaining binding at 1 µM [5]: 74%
remaining binding at 1 µM [6]: 53%
remaining binding at 1 µM [7]: 95%
remaining binding at 1 µM [8]: 96%
remaining binding at 1 µM [9]: 78%

O=C(CN1CCOCC1)N[C@H]1CC[C@H](Nc2cc(Cl)nn3c(-c4ccc5[nH]ncc5c4)cnc23)CC1 [compound 26]
remaining binding at 1 µM [1]: 100%
remaining binding at 1 µM [2]: 13%
remaining binding at 1 µM [3]: 93%
remaining binding at 1 µM [4]: 82%
remaining binding at 1 µM [5]: 100%
remaining binding at 1 µM [6]: 95%
remaining binding at 1 µM [7]: 100%
remaining binding at 1 µM [8]: 85%
remaining binding at 1 µM [9]: 87%

CN1CCC(CNc2cc(Cl)nn3c(-c4cc5nc(Nc6ccccc6)[nH]c5cc4F)cnc23)CC1 [compound 31, 6-Chloro-3-(6-fluoro-2-(phenylamino)-1H-benzo[d]imidazol-5-yl)-N-((1-methylpiperidin-4-yl)methyl)imidazo[1,2-b]pyridazin-8-amine]
remaining binding at 1 µM [1]: 95%
remaining binding at 1 µM [2]: 91%
remaining binding at 1 µM [3]: 86%
remaining binding at 1 µM [4]: 86%
remaining binding at 1 µM [5]: 62%
remaining binding at 1 µM [6]: 79%
remaining binding at 1 µM [7]: 92%
remaining binding at 1 µM [8]: 94%
remaining binding at 1 µM [9]: 81%
